Experimental data from patent US8592383B2, “Cycloalkyl-fused tetrahydroquinolines as CRTH2 receptor modulators” (Merck Sharp & Dohme Corp., priority 2011, dated 2013).

Biological target: T1, hCRTH2 (Homo sapiens, UniProt Q9Y5Y4)
T1 sequence (Q9Y5Y4 1-395): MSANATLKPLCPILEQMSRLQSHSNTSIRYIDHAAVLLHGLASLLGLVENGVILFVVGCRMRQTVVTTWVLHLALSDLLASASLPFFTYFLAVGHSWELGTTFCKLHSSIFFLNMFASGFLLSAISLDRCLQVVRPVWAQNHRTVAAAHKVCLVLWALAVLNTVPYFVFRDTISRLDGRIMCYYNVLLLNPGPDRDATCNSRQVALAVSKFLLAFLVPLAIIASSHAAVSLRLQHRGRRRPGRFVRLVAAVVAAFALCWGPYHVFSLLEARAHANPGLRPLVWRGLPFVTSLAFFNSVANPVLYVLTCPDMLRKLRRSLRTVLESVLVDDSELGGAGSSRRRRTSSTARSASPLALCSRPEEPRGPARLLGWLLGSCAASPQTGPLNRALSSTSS
Parameters: expressed in transfected cells; host or cells: HEK (human embryonic kidney) cells expressing hCRTH2
Conditions: Radioligand Binding Assay B; 0.7 nM [3H]PGD2, HEK-hCRTH2 membranes
Procedure: The filters were then washed with 4 mL of the same buffer and residual radioligand bound to the filter was determined by liquid scintillation counting following equilibration in 25 μl Ultima Gold F™ (Unifilter) (Packard).

Row | Structure (SMILES) | Ki [nM]
1 | O=C(O)CCC(=O)N(C1CC1)C1c2ccccc2N(C(=O)Oc2ccccc2)C2CCCC21 (racemic) [21K, 4-{cyclopropyl[cis, cis-4-(phenoxycarbonyl)-2,3,3a,4,9,9a-hexahydro-1H-cyclopenta[b]quinolin-9-yl]amino}-4-oxobutanoic acid] | 905
2 | CC(CC(=O)N(C1CC1)C1c2ccccc2N(C(=O)OCc2ccccc2)C2CCCC21)C(=O)O (racemic) [compound 10, 4-[{cis,cis-4-[(Benzyloxy)carbonyl]-2,3,3a,4,9,9a-hexahydro-1H-cyclopenta[b]quinolin-9-yl}(cyclopropyl)amino]-2-methyl-4-oxobutanoic acid] | 514

Continued, values first:

Row | Ki [nM] | Structure (SMILES)
3 | 18.4 | O=C(O)CCC(=O)N(C1CC1)C1c2ccccc2N(C(=O)c2ccc(Cl)cc2)C2CCCC21 (racemic) [14K, 4-[{cis,cis-4-[(4-chlorophenyl)carbonyl]-2,3,3a,4,9,9a-hexahydro-1H-cyclopenta[b]quinolin-9-yl}(cyclopropyl)amino]-4-oxobutanoic acid]
4 | 140 | COC(=O)CCC(=O)N(C1CC1)C1c2ccc(F)cc2N(C(=O)c2ccccc2)C2CCCC21 (racemic) [16C, Methyl 4-{cyclopropyl[cis,cis-6-fluoro-4-(phenylcarbonyl)-2,3,3a,4,9,9a-hexahydro-1H-cyclopenta[b]quinolin-9-yl]amino}-4-oxobutanoate]

Same assay, conditions: Radioligand Binding Assay B; Table B, rated A-D

Row | Structure (SMILES) | Ki [nM]
5 | COC(=O)CCC(=O)N(C1CC1)C1c2ccccc2N(C(=O)c2ccsc2)C2CCCC21 (racemic) [14o, methyl 4-{cyclopropyl[cis,cis-4-(thiophen-3-ylcarbonyl)-2,3,3a,4,9,9a-hexahydro-1H-cyclopenta[b]quinolin-9-yl]amino}-4-oxobutanoate] | 201 to 7500
6 | O=C(O)CCC(=O)N(C1CC1)C1c2ccccc2N(C(=O)Oc2ccccc2)C2CCCC21 (racemic) [21K, 4-{cyclopropyl[cis, cis-4-(phenoxycarbonyl)-2,3,3a,4,9,9a-hexahydro-1H-cyclopenta[b]quinolin-9-yl]amino}-4-oxobutanoic acid] | 201 to 7500
7 | CN(C(=O)CCCC(=O)O)C1c2ccccc2N(C(=O)c2ccc(OC(F)(F)F)cc2)C2CCCC12 (racemic) [17o, 5-[[cis,cis-2,3,3a,4,9,9a-hexahydro-4-[4-(trifluoromethoxy)benzoyl]-1H-cyclopenta[b]quinolin-9-yl]methylamino]-5-oxopentanoic acid] | 201 to 7500
8 | CC(CC(=O)N(C1CC1)C1c2ccccc2N(C(=O)OCc2ccccc2)C2CCCC21)C(=O)O (racemic) [compound 10, 4-[{cis,cis-4-[(Benzyloxy)carbonyl]-2,3,3a,4,9,9a-hexahydro-1H-cyclopenta[b]quinolin-9-yl}(cyclopropyl)amino]-2-methyl-4-oxobutanoic acid] | 201 to 7500
9 | O=C(O)CCC(=O)N(C1CC1)C1c2ccccc2N(c2nnc(-c3ccc(OC(F)(F)F)cc3)o2)C2CCCC21 (racemic) [36C, racemic 4-{cyclopropyl[cis, cis-4-{5-[4-trifluoro-(methoxy)phenyl]-1,3,4-oxadiazol-2-yl}-2,3,3a,4,9,9a-hexahydro-1H-cyclopenta[b]quinolin-9-yl]amino}-4-oxobutanoic acid] | 201 to 7500
10 | COC(=O)CCC(=O)N(c1ccccc1)[C@@H]1c2ccccc2N(C(=O)OCc2ccccc2)[C@@H]2CCC[C@@H]21 (racemic) [compound 12, Benzyl cis,cis-9-[(4-methoxy-4-oxobutanoyl)(phenyl)amino]-1,2,3,3a,9,9a-hexahydro-4H-cyclopenta[b]quinoline-4-carboxylate] | 201 to 7500
11 | O=C(c1ccccc1)N1c2ccccc2[C@@H](N(C(=O)OCCO)C2CC2)[C@H]2CCC[C@H]21 (racemic) [compound 29, 2-Hydroxyethyl cyclopropyl[cis,cis-4-(phenylcarbonyl)-2,3,3a,4,9,9a-hexahydro-1H-cyclopenta[b]quinolin-9-yl]carbamate] | 201 to 7500
12 | O=C(O)CCC(=O)N(C1CC1)[C@@H]1c2ccccc2N(C(=O)OCc2ccccc2)[C@@H]2CC[C@@H]21 (racemic) [compound 25, 4-[{cis,cis-3-[(Benzyloxy)carbonyl]-1,2,2a,3,8,8a-hexahydrocyclobuta[b]quinolin-8-yl}(cyclopropyl)amino]-4-oxobutanoic acid] | 20.1 to 200
13 | O=C(O)CCC(=O)N(C1CC1)C1c2ccccc2N(C(=O)Oc2ccc(F)cc2)C2CCCC21 (racemic) [21B, 4-(cyclopropyl{cis, cis-4-[(4-fluorophenoxy)carbonyl]-2,3,3a,4,9,9a-hexahydro-1H-cyclopenta[b]quinolin-9-yl}amino)-4-oxobutanoic acid] | 201 to 7500
14 | CN(C(=O)/C=C/C(=O)O)C1c2ccccc2N(C(=O)c2ccc(OC(F)(F)F)cc2)C2CCCC12 (racemic) [17Q, (2E)-4-[[cis,cis-2,3,3a,4,9,9a-hexahydro-4-[4-(trifluoromethoxy)benzoyl]-1H-cyclopenta[b]quinolin-9-yl]methylamino]-4-oxo-2-butenoic acid] | 201 to 7500
15 | O=C(O)CCC(=O)N(C1CC1)[C@@H]1c2ccccc2N(C(=O)N2CCc3ccccc32)[C@@H]2CCC[C@@H]21 (racemic) [compound 23, 4-{Cyclopropyl[cis,cis-4-(2,3-dihydro-1H-indol-1-ylcarbonyl)-2,3,3a,4,9,9a-hexahydro-1H-cyclopenta[b]quinolin-9-yl]amino}-4-oxobutanoic acid] | 20.1 to 200

The remaining lines, values ahead:

Row | Ki [nM] | Structure (SMILES)
16 | 5.1 to 20 | COC(=O)CCC(=O)N(C1CC1)C1c2ccc(F)cc2N(C(=O)c2ccc(Oc3ccccc3)cc2)C2CCCC21 (racemic) [16B, Methyl 4-{cyclopropyl[cis,cis-6-fluoro-4-[(4-phenoxyphenyl)carbonyl]-2,3,3a,4,9,9a-hexahydro-1H-cyclopenta[b]quinolin-9-yl}amino)-4-oxobutanoate]
17 | 20.1 to 200 | O=C(O)CCC(=O)N(C1CC1)[C@@H]1c2ccccc2N(S(=O)(=O)c2ccccc2)[C@@H]2CCC[C@H]12 (racemic) [compound 24, 4-[Cyclopropyl[cis,cis-2,3,3a,4,9,9a-hexahydro-4-(phenylsulfonyl)-1H-cyclopenta[b]quinolin-9-yl]amino]-4-oxobutanoic acid]
18 | 20.1 to 200 | O=C(O)CCC(=O)N(C1CC1)C1c2ccccc2N(C(=O)OCc2ccc(Cl)c(Cl)c2)C2CCCC21 (racemic) [21L, 4-{cyclopropyl[cis, cis-4-{[(3,4-dichlorobenzyl)oxy]carbonyl}-2,3,3a,4,9,9a-hexahydro-1H-cyclopenta[b]quinolin-9-yl]amino}-4-oxobutanoic acid]
19 | 20.1 to 200 | O=C(O)CCC(=O)N(C1CC1)C1c2ccccc2N(C(=O)c2cccnc2)C2CCCC21 (racemic) [14i, 4-{cyclopropyl[cis,cis-4-(pyridin-3-ylcarbonyl)-2,3,3a,4,9,9a-hexahydro-1H-cyclopenta[b]quinolin-9-yl]amino}-4-oxobutanoic acid]
20 | 20.1 to 200 | O=C(O)CCC(=O)N(C1CC1)C1c2ccccc2N(C(=O)OCc2ccc3ccccc3c2)C2CCCC21 (racemic) [21C, 4-(cyclopropyl{cis, cis-4-[(naphthalen-2-ylmethoxy)carbonyl]-2,3,3a,4,9,9a-hexahydro-1H-cyclopenta[b]quinolin-9-yl}amino)-4-oxobutanoic acid]
21 | 5.1 to 20 | O=C(O)CCC(=O)N(c1ccccc1)C1c2ccccc2N(C(=O)OCc2ccccc2)C2CCCC21 (racemic) [12C, 4-[{cis,cis-4-[(benzyloxy)carbonyl]-2,3,3a,4,9,9a-hexahydro-1H-cyclopenta[b]quinolin-9-yl}(phenyl)amino]-4-oxobutanoic acid]
22 | 5.1 to 20 | O=C(O)CCC(=O)N(C1CC1)C1c2ccccc2N(C(=O)c2ccc(Cl)cc2)C2CCCC21 (racemic) [14K, 4-[{cis,cis-4-[(4-chlorophenyl)carbonyl]-2,3,3a,4,9,9a-hexahydro-1H-cyclopenta[b]quinolin-9-yl}(cyclopropyl)amino]-4-oxobutanoic acid]
23 | 20.1 to 200 | O=C(O)CCC(=O)N(C1CC1)C1c2ccccc2N(c2nnc(-c3ccc(F)cc3)o2)C2CCCC21 (racemic) [36B, racemic 4-(cyclopropyl{cis, cis-4-[5-(4-fluorophenyl)-1,3,4-oxadiazol-2-yl]-2,3,3a,4,9,9a-hexahydro-1H-cyclopenta[b]quinolin-9-yl}amino)-4-oxobutanoic acid]
24 | 20.1 to 200 | O=C(O)CCC(=O)N(C1CC1)C1c2ccccc2N(S(=O)(=O)c2ccc(OC(F)(F)F)cc2)C2CCCC12 (racemic) [24D, 4-[cyclopropyl[cis,cis-2,3,3a,4,9,9a-hexahydro-4-[[4-(trifluoromethoxy)phenyl]sulfonyl]-1H-cyclopenta[b]quinolin-9-yl]amino]-4-oxobutanoic acid]
25 | 5.1 to 20 | O=C(O)CCC(=O)N(C1CC1)C1c2ccccc2N(C(=O)c2ccc(OC(F)(F)F)cc2)C2CCCC21 (racemic) [14C, 4-{cyclopropyl[cis,cis-4-{[4-(trifluoromethoxy)phenyl]carbon-yl}-2,3,3a,4,9,9a-hexahydro-1H-cyclopenta[b]quinolin-9-yl]amino}-4-oxobutanoic acid]
26 | 20.1 to 200 | CC(C)OC(=O)N1c2ccccc2C(N(C(=O)CCC(=O)O)C2CC2)C2CCCC21 (racemic) [compound 21, 4-(Cyclopropyl{cis,cis-4-[(1-methylethoxy)carbonyl]-2,3,3a,4,9,9a-hexahydro-1H-cyclopenta[b]quinolin-9-yl}amino)-4-oxobutanoic acid]
27 | 5.1 to 20 | O=C(O)CCC(=O)N(C1CC1)C1c2ccccc2N(C(=O)c2ccc(Br)cc2)C2CCCC21 (racemic) [14F, 4-[{cis,cis-4-[(4-bromophenyl)carbonyl]-2,3,3a,4,9,9a-hexahydro-1H-cyclopenta[b]quinolin-9-yl}(cyclopropyl)amino]-4-oxobutanoic acid]
28 | 20.1 to 200 | O=C(O)CCC(=O)N(C1CC1)C1c2ccccc2N(C(=O)c2cccc(N3CCOCC3)c2)C2CCCC21 (racemic) [14H, 4-(cyclopropyl{cis,cis-4-[(3-morpholin-4-ylphenyl)carbonyl]-2,3,3a,4,9,9a-hexahydro-1H-cyclopenta[b]quinolin-9-yl}amino)-4-oxobutanoic acid]
29 | 5.1 to 20 | Cn1c(C(=O)N2c3ccccc3C(N(C(=O)CCC(=O)O)C3CC3)C3CCCC32)cc2ccccc21 (racemic) [14D, 4-(cyclopropyl{cis,cis-4-[(1-methyl-1H-indol-2-yl)carbonyl]-2,3,3a,4,9,9a-hexahydro-1H-cyclopenta[b]quinolin-9-yl}amino)-4-oxobutanoic acid]
30 | 20.1 to 200 | COC(=O)CCC(=O)N(C1CC1)C1c2ccc(F)cc2N(C(=O)c2ccccc2)C2CCCC21 (racemic) [16C, Methyl 4-{cyclopropyl[cis,cis-6-fluoro-4-(phenylcarbonyl)-2,3,3a,4,9,9a-hexahydro-1H-cyclopenta[b]quinolin-9-yl]amino}-4-oxobutanoate]
